PMC2649372 (Biochemistry, 2008)
Substitutions are numbered along the chain they refer to. Marks after values point to notes of the source that are not given here.

Legend:
Experiment in all cases: Agonist-induced currents, voltage clamp electrophysiology in Xenopus oocytes
Assay type in all cases: cell-based
[1] = molecular target: T1, N128V mutant 5-HT3 receptor (mouse 5-HT3A subunit) (Mus musculus, UniProt P23979, N128V)
T1 sequence (P23979 24-483 isoform P23979-2 N128V limits assumed): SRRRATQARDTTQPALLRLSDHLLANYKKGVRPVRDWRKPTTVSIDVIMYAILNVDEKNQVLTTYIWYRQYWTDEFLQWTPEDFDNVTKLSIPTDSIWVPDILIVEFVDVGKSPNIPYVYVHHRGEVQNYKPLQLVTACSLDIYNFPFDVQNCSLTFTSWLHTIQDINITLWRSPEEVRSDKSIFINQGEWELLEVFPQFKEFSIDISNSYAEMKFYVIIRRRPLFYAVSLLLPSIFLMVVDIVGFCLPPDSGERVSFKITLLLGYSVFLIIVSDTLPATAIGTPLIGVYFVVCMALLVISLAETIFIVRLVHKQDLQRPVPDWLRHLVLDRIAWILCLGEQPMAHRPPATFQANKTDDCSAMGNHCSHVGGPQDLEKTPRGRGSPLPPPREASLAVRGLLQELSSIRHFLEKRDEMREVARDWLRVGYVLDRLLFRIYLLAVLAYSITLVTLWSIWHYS

[2] = molecular target: T2, N128K mutant 5-HT3 receptor (mouse 5-HT3A subunit) (Mus musculus, UniProt P23979, N128K)
T2 sequence (P23979 24-489 N128K): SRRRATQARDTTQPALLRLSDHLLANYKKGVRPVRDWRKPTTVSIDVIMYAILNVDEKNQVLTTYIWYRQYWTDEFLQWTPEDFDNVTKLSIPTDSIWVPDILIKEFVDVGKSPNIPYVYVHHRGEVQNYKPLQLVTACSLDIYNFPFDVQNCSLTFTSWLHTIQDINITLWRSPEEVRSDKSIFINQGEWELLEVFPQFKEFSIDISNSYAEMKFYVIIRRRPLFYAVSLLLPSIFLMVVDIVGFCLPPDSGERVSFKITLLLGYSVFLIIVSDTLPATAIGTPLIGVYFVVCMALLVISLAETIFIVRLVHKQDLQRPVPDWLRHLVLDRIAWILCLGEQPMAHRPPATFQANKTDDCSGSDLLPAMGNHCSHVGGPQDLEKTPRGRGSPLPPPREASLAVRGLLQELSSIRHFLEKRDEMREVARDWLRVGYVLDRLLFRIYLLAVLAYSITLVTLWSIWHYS

[3] = molecular target: T3, N128Q mutant 5-HT3 receptor (mouse 5-HT3A subunit) (Mus musculus, UniProt P23979, N128Q); conditions: N128Q
T3 sequence (P23979 24-483 isoform P23979-2 N128Q limits assumed): T1 sequence (P23979 24-483 isoform P23979-2 N128V limits assumed) with V105Q

[4] = molecular target: T4, E129N mutant 5-HT3 receptor (mouse 5-HT3A subunit) (Mus musculus, UniProt P23979, E129N); conditions: E129N
T4 sequence (P23979 24-483 isoform P23979-2 E129N limits assumed): T1 sequence (P23979 24-483 isoform P23979-2 N128V limits assumed) with V105N, E106N

[5] = molecular target: T5, WT 5-HT3 receptor (mouse 5-HT3A subunit) (Mus musculus, UniProt P23979); conditions: WT
T5 sequence (P23979 24-483 isoform P23979-2 limits assumed): T1 sequence (P23979 24-483 isoform P23979-2 N128V limits assumed) with V105N

[6] = oocytes, holding potential −60 mV

Structure (SMILES) | nH (Hill coefficient) [1] | nH (Hill coefficient) [2] | nH (Hill coefficient) [3] | size of agonist response (current) [4] [µA] | nH (Hill coefficient) [5] | EC50 [1] [nM] | pEC50 [1] | EC50 [2] [nM] | pEC50 [2] | EC50 [3] [nM] | pEC50 [3] | EC50 [4] [nM] | nH (Hill coefficient) [4] | pEC50 ([4]; SR = small (<100 nA) responses) | EC50 [5, 6] [nM] | pEC50 [5, 6]
NCCc1c[nH]c2ccc(O)cc12 [5-HT, 5-hydroxytryptamine] | 3.18 ± 0.60 | 2.13 ± 0.38 | 2.11 ± 0.29 | > 5 | 2.54 ± 0.15 |  |  |  |  |  |  |  |  |  |  | 
N=C(N)NC(=N)Nc1cccc(Cl)c1 [mCPBG, m-chlorophenylbiguanide] | 5.07 ± 0.85 ^b | 1.43 ± 0.16 | 2.41 ± 0.16 | > 5 | 2.03 ± 0.23 | 74 | 7.13 ± 0.02 ^b | 3900 | 5.41 ± 0.03 ^b | 3000 | 5.52 ± 0.18 ^b | 620 | 1.25 ± 0.19 | 6.21 ± 0.05 | 470 | 6.33 ± 0.02
